According to the supplement of paper PMC12819154, “High-throughput peptide-centric local stability assay extends protein–ligand identification to membrane proteins, tissues and bacteria” (Nature Structural & Molecular Biology, 2025):

Key:
Test in all cases: pEC50 of peptide local stability change
UniProt P42593 = conditions: peptide sequence: TTGWIHR; direction: stabilized; replicate design: treated separately
Method in brief: (§1)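 Each tabulated entry is a mean pEC50 taken across replicates. Four 50 µl replicates of desalted, MgCl2-supplemented E. coli K-12 BW25113 lysate (1.2 mg ml^−1) were exposed to ATP at seven doses from 10 µM to 10 mM, or to water, for 30 min at 25 °C, then trypsin-digested for 4 min at 22 °C and analysed by DIA LC–MS/MS. Treated/control peptide ratios from every replicate were fitted to a four-parameter log-logistic model, and an entry was kept only if fit R^2 exceeded 0.9 in at least three replicates and the coefficient of variation of the estimate was at most 0.25.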

UniProt P64610 = conditions: peptide sequence: YYAHLGR; direction: stabilized; replicate design: treated separately
Method in brief: as §1

UniProt P0C0L2 = conditions: peptide sequence: GQAHWEGDIKR; direction: stabilized; replicate design: treated separately
Method in brief: as §1

UniProt P22188 = conditions: peptide sequence: LWCVFGCGGDRDK; direction: stabilized; replicate design: treated separately
Method in brief: as §1

UniProt P25742 = conditions: peptide sequence: GCETKPITGLAGK; direction: stabilized; replicate design: treated separately
Method in brief: as §1

UniProt P06612 = conditions: peptide sequence: DLPTSGSAAKK; direction: stabilized; replicate design: treated separately
Method in brief: as §1

UniProt P77756 = conditions: peptide sequence: ALNHAVSLGMAK; direction: stabilized; replicate design: treated separately
Method in brief: as §1

UniProt P37624 = conditions: peptide sequence: VLASGTPQELVEKR; direction: stabilized; replicate design: treated separately
Method in brief: as §1

UniProt P13009 = conditions: peptide sequence: TPPVTLEAAR; direction: stabilized; replicate design: treated separately
Method in brief: as §1

UniProt P00363 = conditions: peptide sequence: LAGEQATER; direction: stabilized; replicate design: treated separately
Method in brief: as §1

UniProt P27828 = conditions: peptide sequence: AHNPYGDGQACSR; direction: stabilized; replicate design: treated separately
Method in brief: as §1

Sequence of UniProt P25742 (P25742 whole entry): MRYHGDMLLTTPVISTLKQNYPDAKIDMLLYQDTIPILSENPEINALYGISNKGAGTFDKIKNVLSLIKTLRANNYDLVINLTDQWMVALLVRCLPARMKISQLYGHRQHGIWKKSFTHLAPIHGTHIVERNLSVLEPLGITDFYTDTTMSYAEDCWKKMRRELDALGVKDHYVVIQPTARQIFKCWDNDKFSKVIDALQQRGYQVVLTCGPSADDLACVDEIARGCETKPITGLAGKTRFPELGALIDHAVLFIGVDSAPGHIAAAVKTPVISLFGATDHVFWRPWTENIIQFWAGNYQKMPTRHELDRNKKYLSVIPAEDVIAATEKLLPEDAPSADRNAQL
Sequence of UniProt P37624 (P37624 whole entry): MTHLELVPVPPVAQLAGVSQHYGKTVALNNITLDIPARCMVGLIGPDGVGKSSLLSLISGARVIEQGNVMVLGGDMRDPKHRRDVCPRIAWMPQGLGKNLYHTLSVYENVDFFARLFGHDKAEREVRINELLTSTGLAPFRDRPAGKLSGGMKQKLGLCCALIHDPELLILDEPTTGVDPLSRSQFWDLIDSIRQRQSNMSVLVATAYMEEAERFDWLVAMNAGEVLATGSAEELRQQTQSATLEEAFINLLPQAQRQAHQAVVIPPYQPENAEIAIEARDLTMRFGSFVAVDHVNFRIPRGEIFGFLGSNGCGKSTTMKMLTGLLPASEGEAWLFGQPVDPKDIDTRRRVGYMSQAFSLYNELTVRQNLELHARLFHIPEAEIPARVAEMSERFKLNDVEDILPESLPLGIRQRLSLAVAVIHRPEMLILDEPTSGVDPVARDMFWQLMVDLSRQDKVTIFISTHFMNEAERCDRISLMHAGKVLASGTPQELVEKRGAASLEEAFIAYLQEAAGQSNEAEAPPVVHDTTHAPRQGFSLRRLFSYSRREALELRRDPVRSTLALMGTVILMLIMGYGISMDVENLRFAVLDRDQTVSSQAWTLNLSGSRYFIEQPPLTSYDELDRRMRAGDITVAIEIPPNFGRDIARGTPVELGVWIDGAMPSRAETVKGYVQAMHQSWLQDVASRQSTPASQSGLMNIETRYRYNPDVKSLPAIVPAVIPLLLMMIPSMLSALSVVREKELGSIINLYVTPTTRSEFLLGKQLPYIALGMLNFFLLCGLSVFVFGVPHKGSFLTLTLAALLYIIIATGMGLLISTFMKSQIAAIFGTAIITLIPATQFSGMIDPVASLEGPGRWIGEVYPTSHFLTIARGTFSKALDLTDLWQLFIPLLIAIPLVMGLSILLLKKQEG
Sequence of UniProt P0C0L2 (P0C0L2 whole entry): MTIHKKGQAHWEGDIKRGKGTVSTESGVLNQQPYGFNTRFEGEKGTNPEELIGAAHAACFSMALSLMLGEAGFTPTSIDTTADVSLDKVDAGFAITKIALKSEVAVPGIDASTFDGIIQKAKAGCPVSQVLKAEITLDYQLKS
Sequence of UniProt P22188 (P22188 whole entry): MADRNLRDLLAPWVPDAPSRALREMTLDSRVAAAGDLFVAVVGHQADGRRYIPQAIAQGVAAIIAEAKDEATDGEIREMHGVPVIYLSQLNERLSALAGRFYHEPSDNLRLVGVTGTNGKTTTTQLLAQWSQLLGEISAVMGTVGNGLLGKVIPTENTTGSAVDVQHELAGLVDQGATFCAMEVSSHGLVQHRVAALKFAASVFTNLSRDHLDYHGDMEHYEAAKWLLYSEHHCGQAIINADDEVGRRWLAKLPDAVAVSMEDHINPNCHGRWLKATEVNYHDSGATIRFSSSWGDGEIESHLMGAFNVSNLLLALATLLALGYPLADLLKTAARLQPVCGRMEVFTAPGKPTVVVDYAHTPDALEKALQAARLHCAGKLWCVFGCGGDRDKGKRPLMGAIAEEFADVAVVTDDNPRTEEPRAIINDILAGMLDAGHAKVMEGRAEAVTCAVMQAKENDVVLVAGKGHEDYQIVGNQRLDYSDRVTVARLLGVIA
Sequence of UniProt P00363 (P00363 whole entry): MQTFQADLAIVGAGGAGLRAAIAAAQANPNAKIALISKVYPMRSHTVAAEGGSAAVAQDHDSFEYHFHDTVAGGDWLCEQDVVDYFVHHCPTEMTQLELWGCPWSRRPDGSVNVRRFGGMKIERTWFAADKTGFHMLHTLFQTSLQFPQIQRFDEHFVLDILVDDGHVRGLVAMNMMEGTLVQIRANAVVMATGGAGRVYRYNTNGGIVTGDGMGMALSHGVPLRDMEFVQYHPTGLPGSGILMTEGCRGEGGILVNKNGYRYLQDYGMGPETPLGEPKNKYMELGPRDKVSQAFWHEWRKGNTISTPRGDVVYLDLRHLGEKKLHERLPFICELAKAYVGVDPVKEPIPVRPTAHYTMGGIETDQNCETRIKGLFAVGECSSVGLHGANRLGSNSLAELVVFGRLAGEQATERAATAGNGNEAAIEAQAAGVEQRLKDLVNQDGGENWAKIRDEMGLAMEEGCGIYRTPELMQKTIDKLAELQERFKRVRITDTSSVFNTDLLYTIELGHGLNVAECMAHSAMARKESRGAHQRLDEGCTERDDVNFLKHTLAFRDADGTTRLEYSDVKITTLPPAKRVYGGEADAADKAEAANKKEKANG
Sequence of UniProt P77756 (P77756 whole entry): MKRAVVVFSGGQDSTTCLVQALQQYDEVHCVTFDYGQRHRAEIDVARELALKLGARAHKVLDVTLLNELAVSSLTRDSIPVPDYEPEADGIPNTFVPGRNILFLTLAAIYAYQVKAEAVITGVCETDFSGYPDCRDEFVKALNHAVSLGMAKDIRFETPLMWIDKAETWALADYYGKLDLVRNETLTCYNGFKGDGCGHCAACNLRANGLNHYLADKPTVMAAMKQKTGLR
Sequence of UniProt P06612 (P06612 whole entry): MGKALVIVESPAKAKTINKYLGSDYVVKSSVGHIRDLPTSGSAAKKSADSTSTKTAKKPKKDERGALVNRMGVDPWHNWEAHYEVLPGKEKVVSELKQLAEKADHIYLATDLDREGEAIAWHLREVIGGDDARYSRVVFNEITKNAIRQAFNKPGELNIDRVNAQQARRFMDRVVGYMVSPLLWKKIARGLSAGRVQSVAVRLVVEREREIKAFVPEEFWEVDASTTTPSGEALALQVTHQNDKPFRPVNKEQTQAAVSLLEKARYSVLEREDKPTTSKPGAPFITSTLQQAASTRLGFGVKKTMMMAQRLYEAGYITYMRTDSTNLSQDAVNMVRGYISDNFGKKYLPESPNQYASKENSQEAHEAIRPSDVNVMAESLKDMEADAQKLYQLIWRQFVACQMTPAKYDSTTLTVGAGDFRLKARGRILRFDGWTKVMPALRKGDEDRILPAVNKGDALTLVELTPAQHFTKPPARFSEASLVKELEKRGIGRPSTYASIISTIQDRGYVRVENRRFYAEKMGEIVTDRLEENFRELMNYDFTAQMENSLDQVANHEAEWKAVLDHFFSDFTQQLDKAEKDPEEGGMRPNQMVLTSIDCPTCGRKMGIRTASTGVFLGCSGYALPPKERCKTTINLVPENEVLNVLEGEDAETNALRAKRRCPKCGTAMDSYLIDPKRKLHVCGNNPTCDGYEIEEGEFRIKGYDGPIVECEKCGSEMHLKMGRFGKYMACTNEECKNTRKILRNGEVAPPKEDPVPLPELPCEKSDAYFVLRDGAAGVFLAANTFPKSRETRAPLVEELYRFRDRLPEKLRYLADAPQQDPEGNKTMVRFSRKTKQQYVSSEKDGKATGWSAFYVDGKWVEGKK
Sequence of UniProt P64610 (P64610 whole entry): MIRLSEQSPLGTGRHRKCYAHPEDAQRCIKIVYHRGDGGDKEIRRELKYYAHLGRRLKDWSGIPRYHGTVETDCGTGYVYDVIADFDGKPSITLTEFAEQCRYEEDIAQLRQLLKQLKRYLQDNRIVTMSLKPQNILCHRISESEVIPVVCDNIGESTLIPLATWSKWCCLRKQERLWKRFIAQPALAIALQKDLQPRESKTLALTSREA
Sequence of UniProt P42593 (P42593 whole entry): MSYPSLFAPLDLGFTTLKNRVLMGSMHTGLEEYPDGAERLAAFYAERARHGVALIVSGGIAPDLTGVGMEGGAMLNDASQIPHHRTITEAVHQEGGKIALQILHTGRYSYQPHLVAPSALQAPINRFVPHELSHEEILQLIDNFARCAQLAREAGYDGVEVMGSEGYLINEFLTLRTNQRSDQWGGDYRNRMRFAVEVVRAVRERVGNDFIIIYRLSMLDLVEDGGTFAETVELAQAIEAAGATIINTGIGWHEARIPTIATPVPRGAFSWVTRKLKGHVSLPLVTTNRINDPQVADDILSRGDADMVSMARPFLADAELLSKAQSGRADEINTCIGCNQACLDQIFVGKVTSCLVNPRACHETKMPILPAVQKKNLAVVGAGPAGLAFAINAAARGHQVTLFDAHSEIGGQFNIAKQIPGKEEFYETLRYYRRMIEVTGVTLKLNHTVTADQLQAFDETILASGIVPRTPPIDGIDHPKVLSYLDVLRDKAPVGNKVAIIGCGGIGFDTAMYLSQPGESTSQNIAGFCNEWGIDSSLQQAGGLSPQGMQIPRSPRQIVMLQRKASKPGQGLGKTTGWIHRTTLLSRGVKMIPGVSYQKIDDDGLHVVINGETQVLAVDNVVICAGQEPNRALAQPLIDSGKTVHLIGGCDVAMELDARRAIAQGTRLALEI
Sequence of UniProt P27828 (P27828 whole entry): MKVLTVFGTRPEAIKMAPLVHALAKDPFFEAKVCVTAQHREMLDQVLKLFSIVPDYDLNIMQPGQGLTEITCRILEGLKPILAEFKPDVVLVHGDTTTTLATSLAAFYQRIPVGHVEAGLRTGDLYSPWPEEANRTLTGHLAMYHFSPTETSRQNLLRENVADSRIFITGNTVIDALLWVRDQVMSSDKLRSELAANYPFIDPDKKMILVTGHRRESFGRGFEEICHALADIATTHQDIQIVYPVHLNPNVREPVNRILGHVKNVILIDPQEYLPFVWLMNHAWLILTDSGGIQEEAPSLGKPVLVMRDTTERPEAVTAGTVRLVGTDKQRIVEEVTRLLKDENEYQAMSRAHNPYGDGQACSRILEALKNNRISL

Nc1ncnc2c1ncn2[C@@H]1O[C@H](COP(=O)(O)OP(=O)(O)OP(=O)(O)O)[C@@H](O)[C@H]1O [adenosine 5'-triphosphate]
Conditions | pEC50 of peptide local stability change
UniProt P0C0L2 | 3.96
UniProt P00363 | 2.48
UniProt P06612 | 2.16
UniProt P13009 | 2.53
UniProt P22188 | 3.89
UniProt P25742 | 2.67
UniProt P27828 | 2.12
UniProt P37624 | 3.2
UniProt P42593 | 2.95
UniProt P64610 | 4.1
UniProt P77756 | 3.62
